Laboratory results taken from patent publication US20180362893A1, “COMPOSITIONS COMPRISING AN ULTRAVIOLET INDICATOR” (Chemia Corporation, priority 2015, published 2018).

Experiment: Solubility of Pylaklor White Grains S-5 UV indicator in fragrances
Details: for Color change of the solution: solution of the named fragrance with 5 wt. % Pylaklor White Grains S-5
[1] = Pylaklor White Grains S-5 at 5 wt. % in the named aldehyde fragrance (Table 6)
[2] = Pylaklor White Grains S-5 at 5 wt. % in the named fragrance (Table 5)

Protocol: The solubility of Pylaklor White Grains S-5 UV indicator was evaluated in difference chemical classes of fragrances at a UV indicator concentration of 5 wt. %. The resulting admixtures were evaluated for UV activity by exposure to UV light (400 nm ±5 nm) using a Rayovac VBUV-B light source and visual observation.
The solubility of Pylaklor White Grains S-5 UV indicator was evaluated in three different aldehyde fragrances at a UV indicator concentration of 5 wt. %. The resulting admixtures were evaluated for UV activity by exposure to UV light (400 nm±5 nm) using a Rayovac VBUV-B light source and visual observation.

SMILES	Soluble [1]	Soluble [2]	Color change of the solution
CCCCCCCCCC=O [Aldehyde C-10 (decanal), decanal]	Yes	–	–
O=C/C=C/c1ccccc1 [Cinnamic aldehyde]	Yes	–	–
CC/C=C\CCO [Cis-3-hexanol]	–	Yes	changed from a straw color to a yellow color
CCOC(C)=O [Ethyl acetate]	–	Yes	–
CCCCCCC1CCC(=O)O1 (stereo not shown) [Gamma-decalactone]	–	Yes	–
CCCCCCC(C=O)=Cc1ccccc1 [Hexyl cinnamic aldehyde]	–	Yes	changed color
C=CC(C)(O)CCC=C(C)C (stereo not shown) [Linalool]	–	Yes	–
CCCCCC1C(=O)CCC1CC(=O)OC (stereo not shown) [Methyl dihydrojasmonate]	–	Yes	–
